Test results from US20230123334A1, “AMINO LIPID COMPOUND, PREPARATION METHOD THEREFOR, AND APPLICATION THEREOF” (SHENZHEN SHENXIN BIOTECHNOLOGY CO., LTD., priority 2020, published 2023).

test system: HEK293 cells; assay: Preliminary screening as mRNA vectors, EGFP mRNA transfection of HEK293 cells; assay type: cell-based; settings: EGFP mRNA 50 ng per well, 96-well plates; percentage of GFP fluorescent cells relative to total number of cells (Hoechst)
Method in brief: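 Each well of HEK293 cells received 50 ng of EGFP mRNA. Efficiency was expressed as percent GFP-expressing cells over Hoechst-defined total cell number.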

| Compound | Absolute mRNA transfection efficiency in HEK293 cells |
| --- | --- |
| CCCCCCSc1nc(NCC2CCN(C)CC2)nc(SCCCCCC)n1 [Compound D10S6S6] | 14.4% |
| CCCCCCCCCCCCCCCCCCSc1nc(NCCCCCCCCCCCCC)nc(NCCN2CCCCC2)n1 [Compound D4S18N13] | 0.7% |
| CCCCCCCCCCCCCCCCSc1nc(NCCCCCCCCCCCCC)nc(NCCCN2CCOCC2)n1 [Compound D8S16N13] | 0.1% |
| CCCCCCCCCCCCCCSc1nc(NCCCCCCCCCCCC)nc(NCCN(C)C)n1 [Compound D1S14N12] | 9.6% |
| CCCCCCCCCCCCCCCCCCNc1nc(NCC2CCN(C)CC2)nc(SCCCCCCC)n1 [Compound D10S7N18] | 45.8% |
| CCCCCCCCCCCCCCCCNc1nc(NCCN(C)C)nc(SCCCCCCC)n1 [Compound D1S7N16] | 29.5% |
| CCCCCCCCCCCCCCCCNc1nc(NCCN2CCCCC2)nc(SCCCCCCCC)n1 [Compound D4S8N16] | 1.9% |
| CCCCCCCCCCCCCCCCCCNc1nc(NCCN(C)C)nc(SCCCCCCCCC)n1 [Compound D1S9N18] | 47.6% |
| CCCCCCCCCCCCCCCCCCNc1nc(NCCN2CCOCC2)nc(SCCCCCCCC)n1 [Compound D2S8N18] | 3.7% |
| CCCCCCCCSc1nc(NCCN2CCN(C)CC2)nc(SCCCCCCCC)n1 [Compound D5S8S8] | 45.2% |
| CCCCCCCCCCSc1nc(NCCN2CCOCC2)nc(SCCCCCC)n1 [Compound D2S6S10] | 4.6% |
| CCCCCCCCCCCCSc1nc(NCCCN2CCN(C)CC2)nc(SCCCCCCC)n1 [Compound D9S7S12] | 26.4% |
| CCCCCCCCCCSc1nc(NCCN(C)C)nc(SCCCCCCC)n1 [Compound D1S7S10] | 5.6% |
| CCCCCCCCCCCCCNc1nc(NCCN(CC)CC)nc(SCCCCCC)n1 [Compound D7S6N13] | 2.6% |
| CCCCCCCCCCCCCCCNc1nc(NCCN2CCCCC2)nc(SCCCCCCCCCCC)n1 [Compound D4S11N15] | 17.0% |
| CCCCCCCCCCCCCCCCCCNc1nc(NCC2CCN(C)CC2)nc(SCCCCCCCCCCCCCCCC)n1 [Compound D10S16N18] | 3.0% |
| CCCCCCCCCCCSc1nc(NCCN(CC)CC)nc(SCCCCCC)n1 [Compound D7S6S11] | 0.5% |
| CCCCCCCCCCCCN(CCCCCCCCCCCC)c1nc(NCCN2CCCC2)nc(SCCCCCC)n1 [D3S6^2N12] | 0.4% |
| CCCCCCCCCCCCNc1nc(NCCN(CC)CC)nc(SCCCCCCCCCCCC)n1 [Compound D7S12N12] | 3.7% |
| CCCCCCCCCCCCCCCCSc1nc(NCCCCCCC)nc(NCCCN(C)C)n1 [Compound D6S16N7] | 88.3% |
| CCCCCCCCCCSc1nc(NCCCN(C)C)nc(SCCCCCC)n1 [Compound D6S6S10] | 31.4% |
| CCCCCCCCCCCCCNc1nc(NCC2CCN(C)CC2)nc(SCCCCCCCCCCC)n1 [Compound D10S11N13] | 10.4% |
| CCCCCCCCCCCCCNc1nc(NCCN2CCN(C)CC2)nc(SCCCCCCCCC)n1 [Compound D5S9N13] | 41.5% |

| Compound | Absolute mRNA transfection efficiency in HEK293 cells |
| --- | --- |
| CCCCCCCCCSc1nc(NCCCCCCC)nc(NCCCN2CCOCC2)n1 [Compound D8S9N7] | 2.2% |
| CCCCCCCCCCCCSc1nc(NCCN2CCCCC2)nc(SCCCCCCC)n1 [Compound D4S7S12] | 9.2% |
| CCCCCCCCCCCCCCSc1nc(NCCCCCCCCCCC)nc(NCCN2CCOCC2)n1 [Compound D2S14N11] | 3.5% |
| CCCCCCCCCCCCCCCNc1nc(NCCN(CC)CC)nc(SCCCCCCC)n1 [Compound D7S7N15] | 18.5% |
| CCCCCCCCCCCCCCCCSc1nc(NCCCCCC)nc(NCCN2CCCC2)n1 [Compound D3S16N6] | 96.0% |
| CCCCCCNc1nc(NCCCN2CCOCC2)nc(SCCCCCC)n1 [Compound D8S6N6] | 0.0% |
| CCCCCCCCCCCCCNc1nc(NCCCN(C)C)nc(SCCCCCCC)n1 [Compound D6S7N13] | 44.9% |
| CCCCCCCCCCSc1nc(NCCCN2CCN(C)CC2)nc(SCCCCCCC)n1 [Compound D9S7S10] | 47.1% |
| CCCCCCCCCCCCCCCCCCSc1nc(NCCCCCCCCCCC)nc(NCCCN2CCOCC2)n1 [Compound D8S18N11] | 1.9% |
| CCCCCCCCCCCCCCCCSc1nc(NCCCCCCCCC)nc(NCCN2CCCCC2)n1 [Compound D4S16N9] | 1.0% |
| CCCCCCCCNc1nc(NCCN2CCCC2)nc(SCCCCCCC)n1 [Compound D3S7N8] | 1.3% |
| CCCCCCCCCCCCCCCSc1nc(NCCN2CCN(C)CC2)nc(SCCCCCCC)n1 [Compound D5S7S15] | 58.7% |
| CCCCCCCCCSc1nc(NCCN2CCCC2)nc(SCCCCCCCC)n1 [Compound D3S8S9] | 11.6% |
| CCCCCCCCCCCCCCCCNc1nc(NCCCN(C)C)nc(SCCCCCCCCCCCCCC)n1 [Compound D6S14N16] | 0.5% |
| CCCCCCCCCCCCN(CCCCCCCCCCCC)c1nc(NCCN2CCCCC2)nc(SCCCCCCCC)n1 [D4S8^2N12] | 1.1% |
| CCCCCCCCCCCNc1nc(NCCN2CCCCC2)nc(SCCCCCCCCC)n1 [Compound D4S9N11] | 17.4% |
| CCCCCCCCCCCCCCSc1nc(NCCCN(C)C)nc(SCCCCCCC)n1 [Compound D6S7S14] | 59.7% |
| CCCCCCCCCCCCCCSc1nc(NCCCCCCCCCCCC)nc(NCCN2CCCC2)n1 [Compound D3S14N12] | 13.5% |
| CCCCCCCCCCCCSc1nc(NCCCN2CCN(C)CC2)nc(N(CCCCCCCCCCCC)CCCCCCCCCCCC)n1 [D9S12^2N12] | 0.8% |
| CCCCCCCCCCCCCCCCSc1nc(NCCCCCCCCCCCC)nc(NCC2CCN(C)CC2)n1 [Compound D10S16N12] | 9.2% |
| CCCCCCCCCCCCCNc1nc(NCCN2CCCCC2)nc(SCCCCCCCCCCCC)n1 [Compound D4S12N13] | 1.3% |
| CCCCCCCCCCCSc1nc(NCCCCCC)nc(NCCN2CCOCC2)n1 [Compound D2S11N6] | 5.4% |
| CCCCCCCCCCCSc1nc(NCCCCCCCC)nc(NCCN2CCN(C)CC2)n1 [Compound D5S11N8] | 36.2% |

| Compound | Absolute mRNA transfection efficiency in HEK293 cells |
| --- | --- |
| CCCCCCCCCCCCCCCCNc1nc(NCC2CCN(C)CC2)nc(SCCCCCCCC)n1 [Compound D10S8N16] | 36.4% |
| CCCCCCCCCCCCCCCCCCNc1nc(NCCN(CC)CC)nc(SCCCCCCCC)n1 [Compound D7S8N18] | 12.8% |
| CCCCCCCCCCCCCCCSc1nc(NCC2CCN(C)CC2)nc(SCCCCCCC)n1 [Compound D10S7S15] | 90.4% |
| CCCCCCCCCCCCCCCCCCNc1nc(NCCCN2CCOCC2)nc(SCCCCCC)n1 [Compound D8S6N18] | 0.7% |
| CCCCCCCCCCCCCCCCSc1nc(NCCCCCCCCCCCCC)nc(NCC2CCN(C)CC2)n1 [Compound D10S16N13] | 7.1% |
| CCCCCCCCCCCSc1nc(NCCN(C)C)nc(SCCCCCCC)n1 [Compound D1S7S11] | 4.1% |
| CCCCCCCCCCSc1nc(NCCN2CCCCC2)nc(SCCCCCC)n1 [Compound D4S6S10] | 0.3% |
| CCCCCCCCCCCCCCCCNc1nc(NCCN2CCCC2)nc(SCCCCCCCC)n1 [Compound D3S8N16] | 14.3% |
| CCCCCCCCCCCCCCCCSc1nc(NCCCCCCCC)nc(NCCN2CCCC2)n1 [Compound D3S16N8] | 97.7% |
| CCCCCCCCCCCCNc1nc(NCCCN(C)C)nc(SCCCCCCCCCC)n1 [Compound D6S10N12] | 25.4% |
| CCCCCCCCCCCCCNc1nc(NCCCN(C)C)nc(SCCCCCCCCCC)n1 [Compound D6S10N13] | 10.2% |
| CCCCCCCCCCCCCNc1nc(NCCN2CCCC2)nc(SCCCCCCCCC)n1 [Compound D3S9N13] | 58.2% |
| CCCCCCCCCCCCCCCCSc1nc(NCCCCCCCCCCCCCCC)nc(NCCCN2CCN(C)CC2)n1 [Compound D9S16N15] | 0.2% |
| CCCCCCCCCCCCCCCCCCSc1nc(NCCCCCCCCCCCC)nc(NCCN2CCN(C)CC2)n1 [Compound D5S18N12] | 1.7% |
| CCCCCCCCCCCCNc1nc(NCCN2CCCCC2)nc(SCCCCCC)n1 [Compound D4S6N12] | 0.7% |
| CCCCCCCCCCCCNc1nc(NCCN(C)C)nc(SCCCCCCCCCCCC)n1 [Compound D1S12N12] | 1.7% |
| CCCCCCCCCCCCCCCCCCSc1nc(NCCCCCCCCCCCCCCCC)nc(NCCN2CCCC2)n1 [Compound D3S18N16] | 0.5% |
| CCCCCCCCCCCCCCCCCCSc1nc(NCCCCCCCCCCCCC)nc(NCCN(C)C)n1 [Compound D1S18N13] | 0.2% |
| CCCCCCCCCCCCCCCNc1nc(NCCCN2CCN(C)CC2)nc(SCCCCCCCCCCCCCCC)n1 [Compound D9S15N15] | 0.2% |
| CCCCCCCCCCCCCNc1nc(NCCCN2CCN(C)CC2)nc(SCCCCCCCCCCCC)n1 [Compound D9S12N13] | 1.0% |
| CCCCCCCCCCCSc1nc(NCCN(CC)CC)nc(SCCCCCCCC)n1 [Compound D7S8S11] | 3.2% |
